Laboratory results published in patent US10670605B2, “Cysteine reactive probes and uses thereof” (The Scripps Research Institute, priority 2015, dated 2020).
Structures can show the parent of a compound that is named as a salt.

Experiments:
Assay in all cases: isoTOP-ABPP of compound-treated primary human T cells
Type in all cases: cell-based
[1] = target: T1, Cys residues in primary human T cells (Homo sapiens, UniProt P11216); conditions: PYGB C326 (P11216)
T1 sequence (P11216 1-843): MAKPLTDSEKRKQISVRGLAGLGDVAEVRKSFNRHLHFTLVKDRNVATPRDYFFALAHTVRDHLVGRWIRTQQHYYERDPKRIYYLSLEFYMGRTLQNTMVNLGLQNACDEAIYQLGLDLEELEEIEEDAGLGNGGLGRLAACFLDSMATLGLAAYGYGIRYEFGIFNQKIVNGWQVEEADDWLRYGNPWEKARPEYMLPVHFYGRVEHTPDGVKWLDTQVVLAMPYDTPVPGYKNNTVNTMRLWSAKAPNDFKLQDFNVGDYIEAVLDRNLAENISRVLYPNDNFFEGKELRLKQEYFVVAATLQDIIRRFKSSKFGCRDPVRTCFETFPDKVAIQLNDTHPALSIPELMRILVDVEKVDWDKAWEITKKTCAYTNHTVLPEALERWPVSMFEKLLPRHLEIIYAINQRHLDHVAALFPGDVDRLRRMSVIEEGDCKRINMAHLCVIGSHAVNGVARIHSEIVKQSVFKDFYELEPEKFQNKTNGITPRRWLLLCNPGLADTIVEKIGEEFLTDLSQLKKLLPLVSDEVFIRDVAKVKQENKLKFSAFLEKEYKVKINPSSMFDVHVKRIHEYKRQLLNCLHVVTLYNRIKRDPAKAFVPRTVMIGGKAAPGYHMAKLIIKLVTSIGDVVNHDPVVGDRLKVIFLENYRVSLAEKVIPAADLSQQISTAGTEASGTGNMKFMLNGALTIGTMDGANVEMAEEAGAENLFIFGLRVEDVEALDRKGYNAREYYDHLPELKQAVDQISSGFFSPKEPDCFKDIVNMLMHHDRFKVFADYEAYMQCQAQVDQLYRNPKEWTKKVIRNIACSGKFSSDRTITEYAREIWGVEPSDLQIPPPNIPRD

[2] = target: Cys residues in primary human T cells (Homo sapiens, UniProt O14933); conditions: UBE2L6 C98 (O14933)
[3] = target: Cys residues in primary human T cells (Homo sapiens, UniProt Q5T4S7); conditions: UBR4 C2554 (Q5T4S7)
[4] = target: T2, Cys residues in primary human T cells (Homo sapiens, UniProt O14920); conditions: IKBKB C464 (O14920)
T2 sequence (O14920 1-756): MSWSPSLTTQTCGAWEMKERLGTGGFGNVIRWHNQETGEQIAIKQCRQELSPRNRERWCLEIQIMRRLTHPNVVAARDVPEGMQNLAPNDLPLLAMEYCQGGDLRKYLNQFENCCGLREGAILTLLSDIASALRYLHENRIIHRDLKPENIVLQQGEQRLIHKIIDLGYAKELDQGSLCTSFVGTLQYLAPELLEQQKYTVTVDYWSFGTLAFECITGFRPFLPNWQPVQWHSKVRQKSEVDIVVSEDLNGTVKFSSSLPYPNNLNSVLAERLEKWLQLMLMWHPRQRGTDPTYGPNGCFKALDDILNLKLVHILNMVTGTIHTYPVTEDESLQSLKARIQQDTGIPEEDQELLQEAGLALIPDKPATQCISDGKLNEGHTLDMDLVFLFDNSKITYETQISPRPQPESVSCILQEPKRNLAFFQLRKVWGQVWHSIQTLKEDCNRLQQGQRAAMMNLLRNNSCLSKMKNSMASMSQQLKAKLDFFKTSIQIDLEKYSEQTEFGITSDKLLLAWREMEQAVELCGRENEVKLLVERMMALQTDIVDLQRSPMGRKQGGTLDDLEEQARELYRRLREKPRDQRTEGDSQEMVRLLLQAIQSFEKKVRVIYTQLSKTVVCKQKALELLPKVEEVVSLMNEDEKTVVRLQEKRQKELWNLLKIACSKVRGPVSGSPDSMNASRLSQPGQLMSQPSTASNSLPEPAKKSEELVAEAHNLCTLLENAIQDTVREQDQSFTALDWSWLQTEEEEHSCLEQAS

[5] = target: T3, Cys residues in primary human T cells (Homo sapiens, UniProt O95081); conditions: AGFG2 C39 (O95081)
T3 sequence (O95081 1-481): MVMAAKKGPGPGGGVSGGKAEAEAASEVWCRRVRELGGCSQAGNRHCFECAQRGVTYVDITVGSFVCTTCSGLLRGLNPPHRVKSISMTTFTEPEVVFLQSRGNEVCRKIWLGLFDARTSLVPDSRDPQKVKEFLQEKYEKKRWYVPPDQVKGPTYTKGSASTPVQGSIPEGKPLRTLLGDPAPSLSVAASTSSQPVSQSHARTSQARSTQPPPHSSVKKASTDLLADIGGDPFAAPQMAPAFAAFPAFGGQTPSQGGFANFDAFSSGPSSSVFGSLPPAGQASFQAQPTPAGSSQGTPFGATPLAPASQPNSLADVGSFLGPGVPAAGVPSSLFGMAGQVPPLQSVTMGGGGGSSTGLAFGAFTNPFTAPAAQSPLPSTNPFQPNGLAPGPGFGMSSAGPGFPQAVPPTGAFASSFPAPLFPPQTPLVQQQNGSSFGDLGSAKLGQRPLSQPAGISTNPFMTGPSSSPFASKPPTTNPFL

[6] = target: Cys residues in primary human T cells (Homo sapiens, UniProt Q8IYQ7); conditions: THNSL1 C324 (Q8IYQ7)

Chain of Cys residues in primary human T cells (Homo sapiens, UniProt Q5T4S7) (Q5T4S7 whole entry): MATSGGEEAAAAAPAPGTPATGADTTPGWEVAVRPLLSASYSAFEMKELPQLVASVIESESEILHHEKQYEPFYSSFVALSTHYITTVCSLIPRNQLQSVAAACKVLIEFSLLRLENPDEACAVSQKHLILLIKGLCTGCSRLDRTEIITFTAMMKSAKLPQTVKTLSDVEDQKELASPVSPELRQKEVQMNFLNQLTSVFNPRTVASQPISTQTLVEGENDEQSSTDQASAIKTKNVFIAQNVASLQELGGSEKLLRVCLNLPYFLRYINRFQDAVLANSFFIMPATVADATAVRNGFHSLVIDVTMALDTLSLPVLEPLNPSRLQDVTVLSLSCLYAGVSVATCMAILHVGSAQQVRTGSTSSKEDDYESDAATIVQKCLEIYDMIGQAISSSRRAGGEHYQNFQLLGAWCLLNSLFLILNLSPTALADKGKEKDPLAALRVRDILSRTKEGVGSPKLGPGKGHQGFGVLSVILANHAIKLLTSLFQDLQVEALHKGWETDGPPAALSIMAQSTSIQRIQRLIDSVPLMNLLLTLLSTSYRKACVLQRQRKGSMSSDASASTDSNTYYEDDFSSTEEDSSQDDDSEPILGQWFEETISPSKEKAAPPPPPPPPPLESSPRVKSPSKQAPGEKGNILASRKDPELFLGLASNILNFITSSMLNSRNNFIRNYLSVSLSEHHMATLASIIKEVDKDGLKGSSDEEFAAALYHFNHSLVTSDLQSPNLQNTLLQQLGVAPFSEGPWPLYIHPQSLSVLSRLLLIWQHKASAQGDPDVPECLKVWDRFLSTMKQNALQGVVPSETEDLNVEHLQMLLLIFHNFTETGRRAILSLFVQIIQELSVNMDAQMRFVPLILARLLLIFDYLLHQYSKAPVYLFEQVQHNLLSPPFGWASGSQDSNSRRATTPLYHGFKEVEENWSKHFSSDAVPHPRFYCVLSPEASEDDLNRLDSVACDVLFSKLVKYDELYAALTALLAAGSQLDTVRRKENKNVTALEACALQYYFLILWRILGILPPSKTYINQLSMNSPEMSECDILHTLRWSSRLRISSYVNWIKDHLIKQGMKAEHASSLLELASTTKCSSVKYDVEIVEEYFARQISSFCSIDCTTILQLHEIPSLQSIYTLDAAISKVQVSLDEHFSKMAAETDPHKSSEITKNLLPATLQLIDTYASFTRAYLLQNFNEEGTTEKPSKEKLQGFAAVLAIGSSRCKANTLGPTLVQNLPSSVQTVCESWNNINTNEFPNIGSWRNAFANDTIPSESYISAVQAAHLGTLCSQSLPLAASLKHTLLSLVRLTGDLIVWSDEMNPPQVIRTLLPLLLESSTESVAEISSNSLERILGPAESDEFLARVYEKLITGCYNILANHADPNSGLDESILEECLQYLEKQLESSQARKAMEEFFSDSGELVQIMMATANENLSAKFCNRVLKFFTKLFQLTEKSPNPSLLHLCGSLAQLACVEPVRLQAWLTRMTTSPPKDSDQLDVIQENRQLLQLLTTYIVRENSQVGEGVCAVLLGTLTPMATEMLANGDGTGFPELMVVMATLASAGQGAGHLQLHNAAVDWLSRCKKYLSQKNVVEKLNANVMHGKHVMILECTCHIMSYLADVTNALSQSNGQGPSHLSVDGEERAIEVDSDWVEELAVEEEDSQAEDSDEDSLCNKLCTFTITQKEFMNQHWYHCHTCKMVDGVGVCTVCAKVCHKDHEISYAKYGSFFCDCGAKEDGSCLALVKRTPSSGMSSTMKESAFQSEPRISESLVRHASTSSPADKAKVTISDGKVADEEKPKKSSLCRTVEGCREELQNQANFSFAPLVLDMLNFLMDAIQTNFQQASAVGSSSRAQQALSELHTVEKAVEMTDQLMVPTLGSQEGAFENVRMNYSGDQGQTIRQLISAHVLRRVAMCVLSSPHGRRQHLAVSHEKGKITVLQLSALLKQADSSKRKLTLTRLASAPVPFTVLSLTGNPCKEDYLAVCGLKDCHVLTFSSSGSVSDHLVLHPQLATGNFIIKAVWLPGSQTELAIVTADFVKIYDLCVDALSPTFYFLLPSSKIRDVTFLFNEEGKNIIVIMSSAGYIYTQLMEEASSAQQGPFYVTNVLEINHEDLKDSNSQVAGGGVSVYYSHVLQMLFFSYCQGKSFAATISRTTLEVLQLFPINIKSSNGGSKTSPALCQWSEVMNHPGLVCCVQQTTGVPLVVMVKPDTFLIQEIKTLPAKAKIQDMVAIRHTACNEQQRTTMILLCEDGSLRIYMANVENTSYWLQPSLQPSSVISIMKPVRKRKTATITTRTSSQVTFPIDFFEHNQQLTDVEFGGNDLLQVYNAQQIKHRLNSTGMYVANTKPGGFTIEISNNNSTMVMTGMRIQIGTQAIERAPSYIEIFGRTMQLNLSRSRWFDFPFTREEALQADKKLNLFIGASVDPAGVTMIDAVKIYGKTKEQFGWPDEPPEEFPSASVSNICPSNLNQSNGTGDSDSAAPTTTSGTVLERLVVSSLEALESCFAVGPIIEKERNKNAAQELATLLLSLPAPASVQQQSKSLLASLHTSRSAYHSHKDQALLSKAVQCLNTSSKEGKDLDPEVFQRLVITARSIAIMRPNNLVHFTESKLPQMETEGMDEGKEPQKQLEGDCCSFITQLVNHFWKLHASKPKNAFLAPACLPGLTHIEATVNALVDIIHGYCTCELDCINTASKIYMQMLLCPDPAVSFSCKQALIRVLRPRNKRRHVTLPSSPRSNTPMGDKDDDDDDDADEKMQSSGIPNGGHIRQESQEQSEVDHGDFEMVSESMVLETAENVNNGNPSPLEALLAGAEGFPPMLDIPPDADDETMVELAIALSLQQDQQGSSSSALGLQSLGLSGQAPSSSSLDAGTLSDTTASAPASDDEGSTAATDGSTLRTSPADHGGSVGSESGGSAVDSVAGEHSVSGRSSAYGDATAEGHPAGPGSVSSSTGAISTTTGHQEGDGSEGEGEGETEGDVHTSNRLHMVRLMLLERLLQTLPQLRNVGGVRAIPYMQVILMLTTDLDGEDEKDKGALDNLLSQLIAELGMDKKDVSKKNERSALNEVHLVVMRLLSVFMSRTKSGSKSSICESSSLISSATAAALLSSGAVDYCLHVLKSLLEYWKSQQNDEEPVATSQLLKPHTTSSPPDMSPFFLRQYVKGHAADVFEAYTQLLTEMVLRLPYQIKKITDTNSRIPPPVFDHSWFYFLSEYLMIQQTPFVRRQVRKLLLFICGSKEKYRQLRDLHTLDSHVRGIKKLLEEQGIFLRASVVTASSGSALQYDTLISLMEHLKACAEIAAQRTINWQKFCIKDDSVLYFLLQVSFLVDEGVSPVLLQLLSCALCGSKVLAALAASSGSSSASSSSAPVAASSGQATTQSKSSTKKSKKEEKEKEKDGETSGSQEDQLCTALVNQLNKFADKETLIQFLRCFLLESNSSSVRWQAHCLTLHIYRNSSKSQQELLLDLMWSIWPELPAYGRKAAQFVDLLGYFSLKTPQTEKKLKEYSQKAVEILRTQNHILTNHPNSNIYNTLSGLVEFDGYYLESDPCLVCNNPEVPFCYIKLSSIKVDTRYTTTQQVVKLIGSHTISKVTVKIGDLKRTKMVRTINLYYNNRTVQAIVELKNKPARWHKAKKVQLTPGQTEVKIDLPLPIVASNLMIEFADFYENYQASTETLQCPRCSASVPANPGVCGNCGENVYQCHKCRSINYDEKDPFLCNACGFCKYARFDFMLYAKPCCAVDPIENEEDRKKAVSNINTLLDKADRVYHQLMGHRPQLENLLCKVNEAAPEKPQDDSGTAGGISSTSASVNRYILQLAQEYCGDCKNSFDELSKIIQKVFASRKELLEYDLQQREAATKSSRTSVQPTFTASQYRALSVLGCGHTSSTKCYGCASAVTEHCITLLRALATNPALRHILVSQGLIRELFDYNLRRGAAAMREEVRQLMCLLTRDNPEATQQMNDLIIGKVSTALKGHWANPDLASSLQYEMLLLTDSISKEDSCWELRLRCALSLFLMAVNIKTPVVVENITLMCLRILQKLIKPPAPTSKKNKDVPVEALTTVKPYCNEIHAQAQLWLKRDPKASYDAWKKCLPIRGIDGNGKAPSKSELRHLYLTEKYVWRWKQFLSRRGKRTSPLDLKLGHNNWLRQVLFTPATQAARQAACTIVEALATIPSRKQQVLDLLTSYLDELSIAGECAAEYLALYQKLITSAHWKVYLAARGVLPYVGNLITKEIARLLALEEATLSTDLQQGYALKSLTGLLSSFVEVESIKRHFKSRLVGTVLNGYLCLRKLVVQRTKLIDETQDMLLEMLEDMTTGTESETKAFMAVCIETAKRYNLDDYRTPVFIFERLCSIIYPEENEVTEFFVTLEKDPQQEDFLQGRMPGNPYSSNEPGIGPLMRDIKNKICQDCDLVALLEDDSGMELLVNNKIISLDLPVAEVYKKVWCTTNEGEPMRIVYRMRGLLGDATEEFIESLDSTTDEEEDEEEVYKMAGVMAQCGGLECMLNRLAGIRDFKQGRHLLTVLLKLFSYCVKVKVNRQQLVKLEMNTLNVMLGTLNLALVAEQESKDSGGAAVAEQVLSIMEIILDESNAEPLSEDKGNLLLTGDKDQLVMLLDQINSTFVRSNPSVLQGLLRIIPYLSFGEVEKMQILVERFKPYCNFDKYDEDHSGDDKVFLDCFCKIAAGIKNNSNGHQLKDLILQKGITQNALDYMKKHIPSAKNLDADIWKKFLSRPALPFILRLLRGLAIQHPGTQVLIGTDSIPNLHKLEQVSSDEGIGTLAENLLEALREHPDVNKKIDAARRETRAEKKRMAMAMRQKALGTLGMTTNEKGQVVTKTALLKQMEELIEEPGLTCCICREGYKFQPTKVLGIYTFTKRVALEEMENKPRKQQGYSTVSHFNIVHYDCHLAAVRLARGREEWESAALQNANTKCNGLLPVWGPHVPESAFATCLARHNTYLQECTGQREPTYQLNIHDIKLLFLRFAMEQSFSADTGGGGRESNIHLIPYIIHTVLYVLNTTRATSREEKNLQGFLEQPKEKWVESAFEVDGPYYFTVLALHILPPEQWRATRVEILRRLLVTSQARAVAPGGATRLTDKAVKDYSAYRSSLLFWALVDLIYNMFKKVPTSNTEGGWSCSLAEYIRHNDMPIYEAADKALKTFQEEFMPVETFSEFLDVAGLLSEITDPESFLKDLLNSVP

## COC(=O)/C=C/C(=O)OC [DMF, dimethyl fumarate]
[1]; DMF 10 μM 4h
  R value (DMSO/DMF): 1.65
[1]; DMF 25 μM 4h
  R value (DMSO/DMF): 3.53
[1]; DMF 50 μM 1h
  R value (DMSO/DMF): 2.47
[1]; DMF 50 μM 2h
  R value (DMSO/DMF): 3.73
[1]; DMF 50 μM 4h
  R value (DMSO/DMF): 6.76
[2]; DMF 10 μM 4h
  R value (DMSO/DMF): 1.49
[2]; DMF 50 μM 1h
  R value (DMSO/DMF): 2.44
[2]; DMF 50 μM 2h
  R value (DMSO/DMF): 2.92
[2]; DMF 50 μM 4h
  R value (DMSO/DMF): 12.55
[3]; DMF 10 μM 4h
  R value (DMSO/DMF): 1.52
[3]; DMF 50 μM 1h
  R value (DMSO/DMF): 1.6
[3]; DMF 50 μM 2h
  R value (DMSO/DMF): 2.1
[3]; DMF 50 μM 4h
  R value (DMSO/DMF): 4.63
[4]; DMF 10 μM 4h
  R value (DMSO/DMF): 2.59
[4]; DMF 50 μM 1h
  R value (DMSO/DMF): 3.96
[4]; DMF 50 μM 2h
  R value (DMSO/DMF): 10.12
[4]; DMF 50 μM 4h
  R value (DMSO/DMF): 20
[5]; DMF 10 μM 4h
  R value (DMSO/DMF): 1.42
[5]; DMF 50 μM 2h
  R value (DMSO/DMF): 3.85
[5]; DMF 50 μM 4h
  R value (DMSO/DMF): 6.39
[6]; DMF 50 μM 1h
  R value (DMSO/DMF): 15.93
[6]; DMF 50 μM 2h
  R value (DMSO/DMF): 19.36
